Data from patent US20130072899A1, “Pharmaceutical Formulations for Iontophoretic Delivery of Gallium” (Nitric BloTherapeutics, Inc., priority 2008, published 2013).
Several values for one entry are separate records, joined by “and”; a condition that tells them apart may be missing. Identical values can stand only once.

Assays:
[1] = Gallium permeated through human cadaver skin, receptor analysis; type: in vitro ADME; settings: any of the conditions tested
Protocol: Anodal and cathodal iontophoresis (0.3 mA/cm^2 for 15 min) were carried out using full thickness human cadaver skin in Franz diffusion cells. Ga nitrate solutions (0.15% in 0.05M citrate buffer, or a saturated solution of 16.6% in 0.1M/1M citrate buffer) at different pH conditions (2 to 8) were evaluated.

collagen synthesis = settings: cited from earlier work
[2] = Chemical stability of Ga in different 50 mM buffers (HPLC gallium recovery); type: physicochemical
Protocol: The chemical stability of Ga in different 50 mM buffers was assessed including TRIS (pH 7.0), pyrrolidine (pH 11.3), citric acid (pH 5.0), borate (pH 8.0), formic acid (pH 2.5), phosphate (pH 7.3) and HEPES (pH 7.2). Three standard solutions of Ga in each buffer was assessed by HPLC analysis using the method described in Example 1 at four time points 0, 24, 48 and 100 h. Performance was measured by percentage gallium recovery according to the following formula: […]

For `O=[N+]([O-])[O-].O=[N+]([O-])[O-].O=[N+]([O-])[O-].[Ga+3]` [gallium nitrate, Gallium (III) nitrate hydrate], the “Ga in the receptor” value [1] is listed as “not detected”, the maximum effective dose (collagen synthesis; nitrate hydrate) is listed as 100 uM and 0.0256 mg/ml and the “effective range per mg tissue” value (collagen synthesis; per mg dry weight tissue, Goncalves et al., 2002, Bockman patent) is listed as 1 to 1000 ng/mg. For the same compound, the “effective (desired) concentration range” value (collagen synthesis; published, Bockman et al. 1993, Goncalves et al. 2002) was 0.25 to 100 µM, the “Ga loss after 100 h” value ([2]; 0.25 mg/ml Ga in pyrrolidine buffer, P<0.05, ANOVA) was “significant Ga loss” and the “[Ga] mg/ml recovered” value ([2]; Borate (pH 8.0) 50 mM, listed as Ga, nitrate hydrate) was “no peaks observed”. For the same compound, the “[Ga] mg/ml recovered” value ([2]; Citric acid (pH 5.0) 50 mM, target conc. 0.13 mg/ml) was 0.15 mg/mL, the “[Ga] mg/ml recovered” value ([2]; Citric acid (pH 5.0) 50 mM, target conc. 0.25 mg/ml) was 0.28 mg/mL and the “[Ga] mg/ml recovered” value ([2]; Citric acid (pH 5.0) 50 mM, target conc. 0.5 mg/ml) was 0.54 mg/mL. For the same compound, the “[Ga] mg/ml recovered” value ([2]; Formic acid (pH 2.5) 50 mM, target conc. 0.13 mg/ml) was 0.16 mg/mL, the “[Ga] mg/ml recovered” value ([2]; Formic acid (pH 2.5) 50 mM, target conc. 0.25 mg/ml) was 0.29 mg/mL and the “[Ga] mg/ml recovered” value ([2]; Formic acid (pH 2.5) 50 mM, target conc. 0.5 mg/ml) was 0.55 mg/mL. The “[Ga] mg/ml recovered” value ([2]; HEPES (pH 7.2) 50 mM, target conc. 0.13 mg/ml) was 0.10 mg/mL, the “[Ga] mg/ml recovered” value ([2]; HEPES (pH 7.2) 50 mM, target conc. 0.25 mg/ml) was 0.06 mg/mL and the “[Ga] mg/ml recovered” value ([2]; HEPES (pH 7.2) 50 mM, target conc. 0.5 mg/ml) was 0.13 mg/mL. For the same compound, the “[Ga] mg/ml recovered” value ([2]; Phosphate (pH 7.3) 50 mM, target conc. 0.13 mg/ml) was 0.04 mg/mL, the “[Ga] mg/ml recovered” value ([2]; Phosphate (pH 7.3) 50 mM, target conc. 0.25 mg/ml) was 0.11 mg/mL and the “[Ga] mg/ml recovered” value ([2]; Phosphate (pH 7.3) 50 mM, target conc. 0.5 mg/ml) was 0.30 mg/mL. The “[Ga] mg/ml recovered” value ([2]; Pyrrolidine (pH 11.3) 50 mM, target conc. 0.13 mg/ml) was 0.13 mg/mL, the “[Ga] mg/ml recovered” value ([2]; Pyrrolidine (pH 11.3) 50 mM, target conc. 0.25 mg/ml) was 0.25 mg/mL and the “[Ga] mg/ml recovered” value ([2]; Pyrrolidine (pH 11.3) 50 mM, target conc. 0.5 mg/ml) was 0.49 mg/mL. The “[Ga] mg/ml recovered” value ([2]; TRIS (pH 7.0) 50 mM, target conc. 0.13 mg/ml) was 0.01 mg/mL, the “[Ga] mg/ml recovered” value ([2]; TRIS (pH 7.0) 50 mM, target conc. 0.25 mg/ml) was 0.13 mg/mL and the “[Ga] mg/ml recovered” value ([2]; TRIS (pH 7.0) 50 mM, target conc. 0.5 mg/ml) was 0.49 mg/mL. The “Ga loss between 0 and 100 h” value ([2]; citric or formic acid buffer, P>0.05, ANOVA) was “No significant Ga loss”.
